Measured values: patent US20050050594A1, “Tryptophan synthase as a site of herbicide action” (priority 1999, published 2005)
Where two headings read alike, the source gives them in different places.

What was measured:
[1] = target: T1, Salmonella typhimurium tryptophan synthase holoenzyme (α2β2), TSα reaction (Salmonella typhimurium, UniProt P00929); experiment: Inhibition of tryptophan synthase by the TSα reaction, microtiter kinetic coupled enzyme assay; format: biochemical
T1 construct: made in house; host or cells: E. coli strain CB149pSTB7
Description: Inhibitors of TS were identified by their ability to inhibit the production of glyceraldehyde-3-P by the TSα reaction of the Salmonella typhimurium holoenzyme (α2β2) in the presence of a limiting amount of indole-3-glycerolphosphate and an excess of serine
The assay was developed as a new microtiter plate kinetic enzyme assay based on the combined methods of Creighton (EurJBch 13:1-10, 1970) and Creighton and Yanofsky (JBC 241:980, 1966) with modifications. The rate of glyceraldehyde production was measured as the linear […] (spectrophotometric absorbance at 340 nm) in the presence of glyceraldehyde-3-phosphate dehydrogenase in a coupled enzyme assay.
The assay solution contained a test inhibitor compound, 50 mM Tris-Cl (pH 7.8), 6 mM sodium arsenate, 5 μg/ml pyridoxal phosphate, 0.5 mM DTT, 0.18M NaCl, 60 mM serine, 1.6 mM NAD+, 8 e.u./ml yeast glyceraldehyde-3-phosphate dehydrogenase (Sigma, Catalog #G2647; Kirschner et al., Eur J Bch, 1975, 60:513 and approximately 1.5 e.u. Salmonella TS. 100 μM IGP was added to start the reaction, which was run at 37° C. and using 300 μl per assay in a microtiter plate.
The substrate IGP was used at 1.5 to 2 times its Km concentration to enhance the likelihood of identifying weak inhibitors, binding at the substrate binding site. This approach to identifying enzyme inhibitors was novel, since an excess of all substrates, (at least 5-times the Km value of each), is conventionally used in the measurement of enzyme activity.
Potential inhibitors were evaluated by adding 100 μM inhibitor (equimolar to substrate IGP):or less, in a 1:1 dilution series down from 100 μM, until the inhibition measured was less than 15%. Reaction rates at Vmax were compared in the presence and absence of inhibitors.
In addition, some weaker inhibitors were identified following preincubation of the inhibitor with the TS assay mix for 24 hrs prior to the addition of IGP. The identifying weaker inhibitors is to aid in a quantitative structure activity relationship (QSAR) evaluation, or to identify new herbicidal inhibitor leads. The previously known inhibitor IPP was used as a standard in all tests, where the I50 for IPP was 1-2 uM.

[2] = target: T2, Arabidopsis TS enzyme (Arabidopsis thaliana, UniProt Q42529); experiment: TSα assay with recombinant plant TSα and TSβ expressed in E. coli; format: biochemical; conditions: inhibitor 82 uM; pAC 758 (1.5 ug) + pAC 755 (3 ug)
T2 construct: GST (N, cleaved yes); made in house; host or cells: E. coli DH5α (pGEX-2T constructs)
T2 sequence (Q42529 with tags, fused parts or gaps): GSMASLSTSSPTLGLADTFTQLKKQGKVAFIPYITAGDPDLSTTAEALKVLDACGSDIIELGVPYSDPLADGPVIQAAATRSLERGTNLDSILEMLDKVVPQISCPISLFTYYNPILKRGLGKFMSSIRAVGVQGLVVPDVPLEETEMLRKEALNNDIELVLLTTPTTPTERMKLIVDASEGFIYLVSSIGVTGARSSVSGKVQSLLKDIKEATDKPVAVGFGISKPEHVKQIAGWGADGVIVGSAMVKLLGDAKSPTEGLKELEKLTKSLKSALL
T2 sequence (P14671 with tags, fused parts or gaps partner): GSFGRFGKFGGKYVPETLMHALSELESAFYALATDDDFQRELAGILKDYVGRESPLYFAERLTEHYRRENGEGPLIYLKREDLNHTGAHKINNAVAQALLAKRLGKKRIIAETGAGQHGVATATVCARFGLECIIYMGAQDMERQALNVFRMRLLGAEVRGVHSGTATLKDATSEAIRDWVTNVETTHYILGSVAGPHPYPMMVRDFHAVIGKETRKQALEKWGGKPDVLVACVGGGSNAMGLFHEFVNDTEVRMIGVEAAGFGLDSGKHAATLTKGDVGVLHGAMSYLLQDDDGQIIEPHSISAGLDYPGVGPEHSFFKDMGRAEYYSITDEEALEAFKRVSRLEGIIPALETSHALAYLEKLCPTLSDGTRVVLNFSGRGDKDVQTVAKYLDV
Description: The plant TS proteins were expressed as fusion proteins with glutathione transferase (GST) to facilitate purification. After purification, the GST protein was cleaved off with thrombin as described above before the plant TS assays were performed. After thrombin cleavage, both TSα and TSβ-subunit proteins retained a Gly-Ser residue on the N-terminal of the protein in addition to the TS sequence. […]
The TSα enzyme assay was conducted as described in Example 3 for Salmonella TSα.
Specifically, phenylthiophosphonic acid compounds were used. The TSα assay conditions were as described for Salmonella TSα in Example 3 except that recombinant plant proteins were used instead of the Salmonella enzyme.

[3] = test system: Arabidopsis thaliana; experiment: Herbicidal activity and tryptophan reversal on Arabidopsis grown on agar medium; format: in vivo; parameters: key: 0 - no effect; 9 - total kill; C - chlorotic seedlings 4-6 days after treatment
Description: In this experiment, TS inhibitors were tested on Arabidopsis thaliana grown Murashige minimal organics medium, (obtained from Life Technologies, Grand Island, N.Y.), containing 0.7% agar. Compounds were tested at different concentrations to assess their herbicidal activity.

[4] = TSα reaction, Salmonella holoenzyme, 30 min at 37° C., 100 μM IGP, read-out: TS inhibition I50

T1 sequence (P00929 whole entry): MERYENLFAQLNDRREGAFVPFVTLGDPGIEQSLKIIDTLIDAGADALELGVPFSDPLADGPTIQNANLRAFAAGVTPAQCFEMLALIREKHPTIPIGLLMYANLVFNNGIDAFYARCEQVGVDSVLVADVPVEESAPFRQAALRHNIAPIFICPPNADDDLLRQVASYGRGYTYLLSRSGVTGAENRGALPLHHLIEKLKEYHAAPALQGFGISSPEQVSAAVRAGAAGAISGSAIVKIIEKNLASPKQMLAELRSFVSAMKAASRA
T1 sequence (P0A2K1 2-397, further chain): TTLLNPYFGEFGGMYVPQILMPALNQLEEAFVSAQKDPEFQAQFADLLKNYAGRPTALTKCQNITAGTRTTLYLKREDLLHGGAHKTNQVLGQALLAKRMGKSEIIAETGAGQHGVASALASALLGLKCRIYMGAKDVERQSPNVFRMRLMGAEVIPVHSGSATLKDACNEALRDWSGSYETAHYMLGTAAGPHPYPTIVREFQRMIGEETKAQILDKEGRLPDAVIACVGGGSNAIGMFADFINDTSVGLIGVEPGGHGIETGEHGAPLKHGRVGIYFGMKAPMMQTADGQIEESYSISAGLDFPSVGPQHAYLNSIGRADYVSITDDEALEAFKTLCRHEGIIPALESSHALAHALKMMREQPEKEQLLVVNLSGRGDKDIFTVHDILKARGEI

## O=P(O)(O)CCCCS(=O)(=O)c1ccccc1O [Compound 33, Phosphonic acid, {4-[(o-hydroxyphenyl)sulfonyl]butyl}-]
[1]; I50 TS, TSα reaction of Salmonella holoenzyme
  IC50: 0.36 µM
[2]
  TSα activity, % of control: 2.4 % of control
  TSα activity, relative Vmax: 0.150 mOD/min

## CCOP(=O)(CCCCSc1cc(Cl)ccc1N)OCC [Phosphonic acid, {4-[(2-amino-5-chlorophenyl)thio]butyl}-, diethyl ester]
[3]; herbicide 16 μM
  herbicidal injury rating: 0
[3]; herbicide 31 μM
  herbicidal injury rating: 1
[3]; herbicide 63 μM
  herbicidal injury rating: 1
[3]; herbicide 125 μM
  herbicidal injury rating: 3
[3]; herbicide 250 μM
  herbicidal injury rating: 5
[3]; herbicide 500 μM
  herbicidal injury rating: 6
[3]; herbicide 1000 μM
  herbicidal injury rating: 7

## CP(=O)(O)CCCCSc1ccccc1N [Phosphinic acid, {4-[(o-aminophenyl)thio]butyl}methyl-]
[1]; [4]
  IC50: 100 µM

## Nc1cccnc1SCCCCP(=O)(O)O [Phosphonic acid, {4-[3-amino-2-phridyl)thio]butyl}-]
[1]; [4]
  IC50: 5 µM

## Nc1cc(C(F)(F)F)ccc1SCCCCP(=O)(O)O [Phosphonic acid, {4-[(2-amino-alpha,alpha,alpha-trifluoro-p-tolyl)thio]butyl}-]
[1]; [4]
  IC50: 7 µM

## Nc1ccccc1SCC=CCP(=O)(O)O [Phosphonic acid, {4-[(o-aminophenyl)thio]-2-butenyl}-]
[1]; [4]
  IC50: 0.25 µM
[1]; inhibitor 100 nM
  Enzyme activity, % of control: 70.7 % of control
[1]; inhibitor 300 nM
  Enzyme activity, % of control: 43.4 % of control
[1]; inhibitor 1000 nM
  Enzyme activity, % of control: 25.3 % of control
[1]; inhibitor 3000 nM
  Enzyme activity, % of control: 13.8 % of control
[1]; inhibitor 10000 nM
  Enzyme activity, % of control: 4.5 % of control

## NC1CCCCC1.NC1CCCCC1.O=P(O)(O)CCCC[S+]([O-])c1ccccc1O (centres unmarked) [Phosphonic acid, {4-[(o-hydroxyphenyl)sulfinyl]butyl}-, with cyclohexylamine (1:2)]
[3]; herbicide 7.8 mM + 100 μM Trp
  herbicidal rating: 0
[3]; herbicide 7.8 mM, no Trp
  herbicidal rating: 5
[3]; herbicide 16 mM + 100 μM Trp
  herbicidal rating: 0
[3]; herbicide 16 mM, no Trp
  herbicidal rating: 6
[3]; herbicide 31 mM + 100 μM Trp
  herbicidal rating: 3
[3]; herbicide 31 mM, no Trp
  herbicidal rating: 6
[3]; herbicide 63 mM + 100 μM Trp
  herbicidal rating: 5
[3]; herbicide 63 mM, no Trp
  herbicidal rating: 6
[3]; herbicide 125 mM + 100 μM Trp
  herbicidal rating: 5
[3]; herbicide 125 mM, no Trp
  herbicidal rating: 6
[3]; herbicide 250 mM + 100 μM Trp
  herbicidal rating: 5
[3]; herbicide 250 mM, no Trp
  herbicidal rating: 7Y
[3]; herbicide 500 mM + 100 μM Trp
  herbicidal rating: 5
[3]; herbicide 500 mM, no Trp
  herbicidal rating: 7Y
[3]; herbicide 1000 mM + 100 μM Trp
  herbicidal rating: 5
[3]; herbicide 1000 mM, no Trp
  herbicidal rating: 8
